The source of these data is PubChem BioAssay (NCI).

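Exposure lasted 48 hours, with cells grown in 96-well plates and compounds tested at five concentrations. GI50 marks 50% less growth. TGI denotes the concentration required for complete inhibition of growth.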

Holding throughout (experiment): inhibition of tumour cell growth, NCI panel, 48 h
Experiment [1] concerns CAKI-1 renal.
The subject of experiment [2] is HOP-18 NSCLC.
For experiment [3], the system named is IGROV1 ovarian.
Experiment [4] relates to KM12 colon.
Experiment [5] has as its system M19-MEL melanoma.
For experiment [6], the system named is OVCAR-5 ovarian.
In experiment [7] the test system is SF-295 CNS.
Experiment [8] deals with SK-MEL-2 melanoma.
In experiment [9] the test system is UO-31 renal.
Experiment [10] relates to HS 578T breast.

As to `CN(CCc1ccccn1)/[N+]([O-])=N/O` (tested in a mixture with another compound), the TGI in experiment [1], in experiment [2], in [3], in experiment [4], in [5] and in experiment [6] was more than 100 µM throughout. Also, the TGI in experiment [7], in experiment [8] and in experiment [9] was more than 100 µM throughout.
With `C=C1CCCC2OC(OC)CCC12` (configuration not stated), the TGI in experiment [1], in experiment [2], in experiment [3], in [4], in experiment [5] and in experiment [6] was more than 100 µM in each case. Besides, the TGI in [7], in experiment [8] and in experiment [9] was more than 100 µM throughout.
With `CCCCCCCCC1C(C)c2c([nH]c3ccccc23)C2C(=O)N(c3ccccc3)C(=O)C21` (configuration not stated), the TGI in experiment [1] worked out at 27.5 µM; in experiment [3], 36.2 µM; in experiment [4], 13.5 µM; in [5], 31.9 µM; in experiment [6], 33.6 µM; in experiment [7], 29.8 µM. Also, the TGI in [8] came out at 33.3 µM; in experiment [9], 28.5 µM.
Regarding `CSC(=NC(=O)c1ccccc1)SCCSC(=NC(=O)c1ccccc1)SC`, the TGI in experiment [1], in experiment [3], in [4], in [5], in experiment [6] and in experiment [7] was more than 100 µM in each case. Further, the TGI in experiment [8] and in [9] was more than 100 µM throughout.
For the molecule `CC1(C)C=C(N2CCN(C3=CC(C)(C)NC(C)(C)C3)CC2)CC(C)(C)N1`, the TGI in [1], in experiment [2], in experiment [3], in [4], in experiment [5] and in experiment [6] was more than 100 µM in each case. Also, the TGI in [7] and in [9] was more than 100 µM in each case.
For the molecule `O=C(CC1(O)C(=O)Nc2c(Cl)cc(Cl)cc21)c1ccc([N+](=O)[O-])cc1` (configuration not stated), the TGI in experiment [1] is more than 100 µM; in experiment [2], more than 100 µM; in experiment [3], more than 90.6 µM; in experiment [4], more than 100 µM; in experiment [5], 22 µM; in experiment [6], more than 100 µM. Also, the TGI was more than 100 µM in experiment [7], more than 100 µM in experiment [8] and 35.1 µM in [9].
For the molecule `CC(=O)CCn1[nH]c(=O)c(Cl)c(Cl)c1=O`, the TGI in experiment [1] was 28.8 µM; in experiment [2] it was more than 100 µM; in [3], more than 100 µM; in experiment [4] it was more than 100 µM; in [5], more than 100 µM; in [6] it was more than 100 µM. Moreover, the TGI in [7], in experiment [8] and in [9] was more than 100 µM each time.
For `CC(/C=C1\CCC(CN(C)C)C1=O)c1cccc(Br)c1` (configuration not stated), the TGI was 21.1 µM in experiment [1]; 33.9 µM in [2]; 19.4 µM in experiment [3]; 23.9 µM in experiment [4]; 50.2 µM in [5]; 43.8 µM in [6]. Further, the TGI in experiment [7] worked out at 42.3 µM; in [8], 30.5 µM; in experiment [9], 33.2 µM.
`Cl.[O-]c1cccc2cccnc12.[O-]c1cccc2cccnc12.[O-]c1cccc2cccnc12.[O-]c1cccc2cccnc12.[Ti+4]`: the GI50 was 1.61 µM in experiment [1]; more than 100 µM in experiment [10]; 2.28 µM in experiment [4]; 2.71 µM in experiment [6]; 3.09 µM in experiment [7]; 3.32 µM in experiment [8]. The GI50 in experiment [9] was 5.59 µM. Besides, the TGI in experiment [1] is more than 100 µM; in [2], more than 100 µM; in [10], more than 100 µM; in experiment [3], 2.92 µM; in [4], 8.04 µM; in [6], 19.5 µM. The values for the TGI in experiment [7], in [8] and in experiment [9] were more than 100 µM, 26.1 µM and more than 100 µM, respectively.
For the molecule `O=C1C(c2ccccc2)=[N+]([O-])c2cc([N+](=O)[O-])ccc21`, the TGI in experiment [2] is more than 100 µM; in experiment [3] it was 53.5 µM; in experiment [4], 47.5 µM; in [5], 32.9 µM; in experiment [6], more than 100 µM; in experiment [7], more than 100 µM. Besides, the TGI in [8] and in experiment [9] was more than 100 µM each time.
As for `COc1ccc(C(=O)Nc2ccn(CCOC(=O)c3ccc(OC)cc3)c(=O)n2)cc1`, the TGI in experiment [1], in experiment [2], in [3], in experiment [4], in experiment [5] and in experiment [6] was more than 100 µM each time. Moreover, the TGI in [7], in experiment [8] and in experiment [9] was more than 100 µM in each case.
In the case of `CCCc1nn(C)c(CCC(=O)N(Cc2ccccc2)Cc2ccccc2)c1CC`, the TGI in experiment [2], in experiment [3], in experiment [4], in experiment [5], in experiment [6] and in experiment [7] was more than 100 µM each time. In addition, the TGI in experiment [8] and in experiment [9] was more than 100 µM in each case.
On to `CC1=C(C(=O)Nc2ccccc2C)C(c2ccccc2O)C(C(=O)Nc2ccccc2C)=C(C)N1`, for which the TGI was more than 100 µM in experiment [1]; 55.6 µM in experiment [2]; 37.5 µM in [3]; 31.2 µM in experiment [4]; 52 µM in experiment [5]; 82.2 µM in experiment [6]. In addition, the TGI in [7] turned out to be 40.3 µM; in experiment [8], 35.3 µM; in experiment [9] it was 38.4 µM.
On to `CCCCCCCCCCCCCP(=O)(OC)OC`, for which the TGI in [1] came to 32.7 µM; in experiment [2] it was 32.9 µM; in [3], 35.5 µM; in experiment [4] it was 31.9 µM; in [5] it was 33.4 µM; in experiment [6], 30.6 µM. Moreover, the TGI in experiment [7] was determined as 37.1 µM; in experiment [8], 31.3 µM; in experiment [9] it was 29.8 µM.
`Cc1ccc(-c2nc3ccccc3c(=O)n2NC2OC(CO)C(O)C(O)C2O)cc1` (configuration not stated): the TGI in experiment [1], in experiment [2], in [3], in [4], in experiment [5] and in experiment [6] was more than 100 µM in each case. Also, the TGI in experiment [7], in [8] and in [9] was more than 100 µM throughout.
